From PMC9719519, “Non-classical ferroptosis inhibition by a small molecule targeting PHB2” (Nature Communications, 2022) come the findings set out here.

What all share (assay): biochemical
Set-up in all cases: Eurofins recombinant human kinase profiling, remaining kinase activity as % of control, 10 uM ATP
Common to all, as to details: ATP 10 uM; read-out: %Ctrl@10 μM

The target of one test is T1, PDGFRα(D842V)(h) (Homo sapiens, UniProt P16234, D842V).
T1 construct: gene PDGFRA
A digest of the protocol: (§1)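 Activity measured in a commercial panel of 401 recombinant human protein kinases run as a kinase profiling service.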

A further test has as its target T2, CHK2(h) (Homo sapiens, UniProt O96017).
T2 construct: gene CHEK2
The procedure, abridged: as §1

In another test the target is T3, Rse(h) (Homo sapiens, UniProt Q06418).
T3 construct: gene TYRO3
A digest of the protocol:
as §1

The next test concerns the target T4, Arg(h) (Homo sapiens, UniProt P42684).
T4 construct: gene ABL2
The procedure, abridged: as §1

The target in a further test is T5, BIKe(h) (Homo sapiens, UniProt Q9NSY1).
T5 construct: gene BMP2K
The procedure, abridged: as §1

The next test deals with MYO3B(h) (Homo sapiens, UniProt Q8WXR4). The procedure, abridged: as §1
The next test addresses Src(T341M)(h) (Homo sapiens, UniProt P12931, T341M). The procedure, abridged:
as §1

The target of a further test is Hck(h) activated (Homo sapiens, UniProt P08631). A digest of the protocol: as §1
The next test deals with T6, Tie2(R849W)(h) (Homo sapiens, UniProt Q02763, R849W).
T6 construct: gene TEK
A digest of the protocol:
as §1

In another test the target is MARK1(h) (Homo sapiens, UniProt Q9P0L2). A digest of the protocol:
as §1

For a further test, the target named is T7, CDK5/p35(h) (Homo sapiens, UniProt Q00535).
T7 construct: p35
The procedure, abridged:
as §1

In a further test the target is Flt3(D835Y)(h) (Homo sapiens, UniProt P36888, D835Y). A digest of the protocol: as §1
The next test addresses T8, NIM1(h) (Homo sapiens, UniProt Q8IY84).
T8 construct: gene NIM1K
The procedure, abridged: as §1

The next test deals with T9, Aurora-A(h) (Homo sapiens, UniProt O14965).
T9 construct: gene AURKA
A digest of the protocol: as §1

In another test the target is DYRK1B(h) (Homo sapiens, UniProt Q9Y463). The procedure, abridged:
as §1

The target of a further test is T10, LKB1(h) (Homo sapiens, UniProt Q15831).
T10 construct: gene STK11
T10 sequence (Q15831 whole entry): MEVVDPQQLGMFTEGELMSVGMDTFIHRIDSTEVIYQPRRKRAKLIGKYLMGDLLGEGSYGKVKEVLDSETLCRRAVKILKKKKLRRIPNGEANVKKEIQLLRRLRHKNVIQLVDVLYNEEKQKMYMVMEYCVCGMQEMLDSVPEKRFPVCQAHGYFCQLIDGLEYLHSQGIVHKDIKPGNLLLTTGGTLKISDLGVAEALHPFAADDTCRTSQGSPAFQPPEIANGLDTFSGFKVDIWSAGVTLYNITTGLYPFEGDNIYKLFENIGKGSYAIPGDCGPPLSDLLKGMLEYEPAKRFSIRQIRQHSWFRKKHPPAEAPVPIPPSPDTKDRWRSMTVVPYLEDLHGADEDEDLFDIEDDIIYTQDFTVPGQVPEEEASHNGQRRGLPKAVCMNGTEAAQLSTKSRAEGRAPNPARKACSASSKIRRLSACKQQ
T10 sequence (Q7RTN6 whole entry partner): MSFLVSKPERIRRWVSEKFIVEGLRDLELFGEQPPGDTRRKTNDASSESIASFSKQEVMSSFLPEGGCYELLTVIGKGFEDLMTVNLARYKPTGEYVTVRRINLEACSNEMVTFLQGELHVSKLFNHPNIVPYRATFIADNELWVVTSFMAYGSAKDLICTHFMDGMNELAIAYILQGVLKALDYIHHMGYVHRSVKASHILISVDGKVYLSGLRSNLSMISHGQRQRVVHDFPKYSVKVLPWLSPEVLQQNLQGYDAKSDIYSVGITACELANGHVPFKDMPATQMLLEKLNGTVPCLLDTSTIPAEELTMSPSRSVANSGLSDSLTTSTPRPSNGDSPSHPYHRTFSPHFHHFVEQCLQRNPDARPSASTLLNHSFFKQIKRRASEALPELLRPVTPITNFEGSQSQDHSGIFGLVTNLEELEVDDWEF
T10 sequence (Q9Y376 whole entry partner): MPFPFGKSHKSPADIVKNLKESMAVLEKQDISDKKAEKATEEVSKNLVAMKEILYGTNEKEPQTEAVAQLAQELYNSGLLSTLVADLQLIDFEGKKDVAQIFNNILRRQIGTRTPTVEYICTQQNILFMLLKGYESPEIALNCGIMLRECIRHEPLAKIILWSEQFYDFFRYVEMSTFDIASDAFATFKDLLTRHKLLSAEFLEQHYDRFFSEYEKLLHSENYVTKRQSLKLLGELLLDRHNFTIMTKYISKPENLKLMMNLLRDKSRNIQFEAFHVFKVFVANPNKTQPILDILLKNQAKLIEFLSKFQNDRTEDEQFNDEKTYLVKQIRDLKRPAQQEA
The procedure, abridged:
as §1

For the next test, the target named is T11, MRCKα(h) (Homo sapiens, UniProt Q5VT25).
T11 construct: gene CDC42BPA
A digest of the protocol:
as §1

The next test deals with T12, MST1(h) (Homo sapiens, UniProt Q13043).
T12 construct: gene STK4
A digest of the protocol: as §1

Another test concerns the target STK32A(h) (Homo sapiens, UniProt Q8WU08). A digest of the protocol:
as §1

For a further test, the target named is NEK11(h) (Homo sapiens, UniProt Q8NG66). A digest of the protocol:
as §1

Another test deals with TLK2(h) (Homo sapiens, UniProt Q86UE8). The procedure, abridged: as §1
For another test, the target named is Lck(h) activated (Homo sapiens, UniProt P06239). The procedure, abridged:
as §1

Chain of Src(T341M)(h) (P12931 whole entry T341M): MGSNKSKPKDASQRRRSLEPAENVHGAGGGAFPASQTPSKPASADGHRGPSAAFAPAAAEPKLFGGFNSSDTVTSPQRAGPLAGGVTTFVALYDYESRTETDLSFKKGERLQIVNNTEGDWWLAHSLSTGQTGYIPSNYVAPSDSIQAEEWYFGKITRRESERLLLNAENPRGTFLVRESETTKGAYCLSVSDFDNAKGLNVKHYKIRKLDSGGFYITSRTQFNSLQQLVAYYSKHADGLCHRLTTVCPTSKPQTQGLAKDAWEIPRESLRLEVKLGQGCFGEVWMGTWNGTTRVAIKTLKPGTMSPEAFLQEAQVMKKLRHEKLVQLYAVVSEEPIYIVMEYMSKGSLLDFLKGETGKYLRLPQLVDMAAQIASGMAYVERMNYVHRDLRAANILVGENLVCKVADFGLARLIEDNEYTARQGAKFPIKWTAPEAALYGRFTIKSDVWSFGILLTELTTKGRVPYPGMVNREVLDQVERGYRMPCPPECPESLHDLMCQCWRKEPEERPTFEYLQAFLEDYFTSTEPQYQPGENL
Chain of STK32A(h) (Q8WU08 whole entry): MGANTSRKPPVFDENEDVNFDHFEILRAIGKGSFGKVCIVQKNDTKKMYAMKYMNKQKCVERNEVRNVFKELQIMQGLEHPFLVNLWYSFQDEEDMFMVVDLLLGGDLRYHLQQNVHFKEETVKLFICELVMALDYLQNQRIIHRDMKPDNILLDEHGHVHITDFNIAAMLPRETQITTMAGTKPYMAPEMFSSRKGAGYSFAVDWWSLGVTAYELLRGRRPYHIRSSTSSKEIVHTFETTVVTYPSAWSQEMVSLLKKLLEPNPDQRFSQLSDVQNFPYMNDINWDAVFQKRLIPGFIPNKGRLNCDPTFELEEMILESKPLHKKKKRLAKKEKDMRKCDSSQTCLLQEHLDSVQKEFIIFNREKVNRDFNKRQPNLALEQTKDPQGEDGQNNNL
Chain of Lck(h) activated (P06239 whole entry): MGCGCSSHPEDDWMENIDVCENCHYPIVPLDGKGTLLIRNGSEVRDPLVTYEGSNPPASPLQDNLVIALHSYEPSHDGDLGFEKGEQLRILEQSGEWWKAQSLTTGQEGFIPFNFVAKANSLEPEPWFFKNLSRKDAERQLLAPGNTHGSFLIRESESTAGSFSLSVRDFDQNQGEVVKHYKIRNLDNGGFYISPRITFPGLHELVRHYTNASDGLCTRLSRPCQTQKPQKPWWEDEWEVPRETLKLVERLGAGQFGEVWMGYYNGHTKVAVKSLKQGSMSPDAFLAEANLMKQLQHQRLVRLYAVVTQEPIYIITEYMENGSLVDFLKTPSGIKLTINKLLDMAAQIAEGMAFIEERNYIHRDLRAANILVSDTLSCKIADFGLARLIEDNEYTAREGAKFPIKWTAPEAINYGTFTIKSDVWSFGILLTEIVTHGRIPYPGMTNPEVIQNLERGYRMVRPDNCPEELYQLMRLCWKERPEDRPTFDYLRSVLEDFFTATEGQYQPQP
T4 sequence (P42684 whole entry): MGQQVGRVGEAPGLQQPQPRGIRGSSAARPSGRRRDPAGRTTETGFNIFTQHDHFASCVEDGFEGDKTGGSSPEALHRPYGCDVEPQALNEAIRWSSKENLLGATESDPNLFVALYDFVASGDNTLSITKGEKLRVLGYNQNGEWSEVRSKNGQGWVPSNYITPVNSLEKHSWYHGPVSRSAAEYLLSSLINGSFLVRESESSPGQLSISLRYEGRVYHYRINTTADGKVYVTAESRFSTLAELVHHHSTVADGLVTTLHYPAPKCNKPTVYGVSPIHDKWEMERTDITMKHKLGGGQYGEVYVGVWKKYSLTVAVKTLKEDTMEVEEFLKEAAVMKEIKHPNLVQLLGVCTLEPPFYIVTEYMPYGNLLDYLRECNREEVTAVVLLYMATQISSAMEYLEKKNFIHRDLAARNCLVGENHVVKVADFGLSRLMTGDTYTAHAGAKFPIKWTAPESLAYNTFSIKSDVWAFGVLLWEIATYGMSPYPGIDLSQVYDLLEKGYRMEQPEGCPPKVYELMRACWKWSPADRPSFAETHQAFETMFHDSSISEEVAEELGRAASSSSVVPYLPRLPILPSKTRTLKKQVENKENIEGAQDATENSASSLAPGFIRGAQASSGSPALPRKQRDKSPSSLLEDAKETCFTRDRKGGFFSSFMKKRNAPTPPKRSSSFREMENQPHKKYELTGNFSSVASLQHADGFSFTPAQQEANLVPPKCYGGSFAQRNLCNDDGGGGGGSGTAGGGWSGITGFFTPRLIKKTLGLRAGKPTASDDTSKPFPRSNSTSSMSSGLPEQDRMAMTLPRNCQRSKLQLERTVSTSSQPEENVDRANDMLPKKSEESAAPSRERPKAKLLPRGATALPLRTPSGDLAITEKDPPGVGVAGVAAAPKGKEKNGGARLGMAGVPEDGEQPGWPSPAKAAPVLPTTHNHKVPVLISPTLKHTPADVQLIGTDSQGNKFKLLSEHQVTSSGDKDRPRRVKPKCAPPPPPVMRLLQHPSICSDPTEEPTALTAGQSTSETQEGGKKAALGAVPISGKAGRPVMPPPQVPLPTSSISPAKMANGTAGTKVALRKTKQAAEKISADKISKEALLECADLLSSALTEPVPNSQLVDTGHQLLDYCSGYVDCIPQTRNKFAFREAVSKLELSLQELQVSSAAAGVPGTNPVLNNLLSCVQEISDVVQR
T1 sequence (P16234 whole entry D842V): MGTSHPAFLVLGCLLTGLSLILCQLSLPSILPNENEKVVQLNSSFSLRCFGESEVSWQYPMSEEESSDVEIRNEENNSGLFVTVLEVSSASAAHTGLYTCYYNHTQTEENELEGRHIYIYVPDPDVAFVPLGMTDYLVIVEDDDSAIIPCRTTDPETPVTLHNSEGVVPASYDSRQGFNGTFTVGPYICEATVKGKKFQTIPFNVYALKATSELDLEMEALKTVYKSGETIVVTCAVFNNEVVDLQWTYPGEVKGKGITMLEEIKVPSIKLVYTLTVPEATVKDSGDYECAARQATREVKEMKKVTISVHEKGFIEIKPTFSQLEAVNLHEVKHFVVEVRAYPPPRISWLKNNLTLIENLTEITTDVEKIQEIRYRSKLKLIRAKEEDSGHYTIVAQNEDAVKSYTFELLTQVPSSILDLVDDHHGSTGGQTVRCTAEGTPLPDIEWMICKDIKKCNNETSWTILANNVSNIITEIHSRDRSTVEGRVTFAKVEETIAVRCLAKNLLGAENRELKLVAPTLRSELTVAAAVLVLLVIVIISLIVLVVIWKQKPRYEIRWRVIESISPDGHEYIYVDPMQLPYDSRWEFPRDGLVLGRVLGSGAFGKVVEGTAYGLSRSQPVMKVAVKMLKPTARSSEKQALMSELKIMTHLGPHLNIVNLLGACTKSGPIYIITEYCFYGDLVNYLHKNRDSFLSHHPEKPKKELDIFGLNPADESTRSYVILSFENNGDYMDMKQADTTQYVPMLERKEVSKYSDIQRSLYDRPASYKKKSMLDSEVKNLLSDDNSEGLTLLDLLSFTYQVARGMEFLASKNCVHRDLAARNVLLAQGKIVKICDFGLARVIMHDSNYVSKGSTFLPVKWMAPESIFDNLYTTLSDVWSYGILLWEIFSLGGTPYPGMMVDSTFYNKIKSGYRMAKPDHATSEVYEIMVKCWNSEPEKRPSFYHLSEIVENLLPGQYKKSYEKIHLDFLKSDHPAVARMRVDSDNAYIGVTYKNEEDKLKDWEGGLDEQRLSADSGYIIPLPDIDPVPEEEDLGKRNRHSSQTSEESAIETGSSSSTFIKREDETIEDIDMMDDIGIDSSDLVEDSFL

In the case of `C1=C(c2nc(-c3cnn(C4CCNCC4)c3)cn3cc(-c4ccccc4)nc23)CCOC1` [YL-939], the remaining activity at 10 µM at PDGFRα(D842V)(h) came to 113%; at CHK2(h), 100%; at Rse(h), 98%; at Arg(h), 108%; at BIKe(h), 115%; at MYO3B(h) it was 89%. Moreover, the remaining activity at 10 µM on Src(T341M)(h) was found to be 100%; on Hck(h) activated it was 105%; at Tie2(R849W)(h), 122%; on MARK1(h) it was 95%; at CDK5/p35(h), 100%; on Flt3(D835Y)(h) it was 95%. Further, the remaining activity at 10 µM was determined as 85% at NIM1(h); 111% at Aurora-A(h); 97% on DYRK1B(h); 87% at LKB1(h); 92% at MRCKα(h); 91% at MST1(h). Also, the remaining activity at 10 µM was 111% at STK32A(h), 86% at NEK11(h), 88% on TLK2(h) and 77% at Lck(h) activated.
